Data: US9611267B2, “Substituted tricyclic compounds as FGFR inhibitors” (Incyte Corporation, priority 2012, dated 2017)

Key:
Assay type in all cases: biochemical
[1] = biological target: FGFR3 (Homo sapiens (Human), UniProt P22607); experiment: FGFR enzymatic assay (FRET peptide phosphorylation), FGFR3; conditions: FGFR3 enzyme (Millipore), ATP 140 μM
How it was run: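 After 5-10 min pre-incubation of FGFR3 with serially diluted compound in pH 7.5 HEPES/MgCl2/EGTA/DTT buffer, the reaction proceeded 1 hr at 25° C. Phosphorylated peptide was detected by FRET, and IC50 was fitted with a variable-slope sigmoid.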

[2] = biological target: FGFR2 (Homo sapiens (Human), UniProt P21802); experiment: FGFR enzymatic assay (FRET peptide phosphorylation), FGFR2; conditions: FGFR2 enzyme 0.01 nM, ATP 100 μM
How it was run: (§1)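 IC50 values were obtained from variable-slope sigmoidal dose-response fitting of a FRET read-out of peptide phosphorylation. The buffer, described for FGFR3, was 50 mM HEPES pH 7.5 with MgCl2, EGTA, Tween-20 and DTT.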

[3] = biological target: FGFR1 (Homo sapiens (Human), UniProt P11362); experiment: FGFR enzymatic assay (FRET peptide phosphorylation), FGFR1; conditions: FGFR1 enzyme 0.02 nM, ATP 210 μM
How it was run: as §1

Measured: IC50

Sequence of FGFR2 (P21802 22-821): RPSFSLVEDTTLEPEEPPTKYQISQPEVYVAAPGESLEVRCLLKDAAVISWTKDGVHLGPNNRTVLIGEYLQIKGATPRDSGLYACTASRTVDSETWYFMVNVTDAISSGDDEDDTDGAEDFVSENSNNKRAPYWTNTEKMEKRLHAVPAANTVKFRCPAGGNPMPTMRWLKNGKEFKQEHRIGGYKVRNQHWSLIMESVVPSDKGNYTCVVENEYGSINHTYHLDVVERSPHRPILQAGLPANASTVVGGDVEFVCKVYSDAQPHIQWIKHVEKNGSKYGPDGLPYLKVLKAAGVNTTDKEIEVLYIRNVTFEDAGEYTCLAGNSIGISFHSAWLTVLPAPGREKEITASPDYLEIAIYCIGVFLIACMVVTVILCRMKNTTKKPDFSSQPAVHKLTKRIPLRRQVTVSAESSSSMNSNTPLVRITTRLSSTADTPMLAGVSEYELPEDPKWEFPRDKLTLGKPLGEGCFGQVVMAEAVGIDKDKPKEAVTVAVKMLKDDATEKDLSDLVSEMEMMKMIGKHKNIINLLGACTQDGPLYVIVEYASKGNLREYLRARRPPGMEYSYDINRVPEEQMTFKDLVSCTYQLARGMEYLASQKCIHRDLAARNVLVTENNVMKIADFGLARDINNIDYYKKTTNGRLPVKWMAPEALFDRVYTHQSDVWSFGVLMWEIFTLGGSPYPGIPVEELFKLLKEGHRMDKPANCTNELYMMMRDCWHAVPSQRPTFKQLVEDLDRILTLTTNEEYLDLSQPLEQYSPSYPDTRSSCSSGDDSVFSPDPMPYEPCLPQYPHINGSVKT
Sequence of FGFR1 (P11362 22-822): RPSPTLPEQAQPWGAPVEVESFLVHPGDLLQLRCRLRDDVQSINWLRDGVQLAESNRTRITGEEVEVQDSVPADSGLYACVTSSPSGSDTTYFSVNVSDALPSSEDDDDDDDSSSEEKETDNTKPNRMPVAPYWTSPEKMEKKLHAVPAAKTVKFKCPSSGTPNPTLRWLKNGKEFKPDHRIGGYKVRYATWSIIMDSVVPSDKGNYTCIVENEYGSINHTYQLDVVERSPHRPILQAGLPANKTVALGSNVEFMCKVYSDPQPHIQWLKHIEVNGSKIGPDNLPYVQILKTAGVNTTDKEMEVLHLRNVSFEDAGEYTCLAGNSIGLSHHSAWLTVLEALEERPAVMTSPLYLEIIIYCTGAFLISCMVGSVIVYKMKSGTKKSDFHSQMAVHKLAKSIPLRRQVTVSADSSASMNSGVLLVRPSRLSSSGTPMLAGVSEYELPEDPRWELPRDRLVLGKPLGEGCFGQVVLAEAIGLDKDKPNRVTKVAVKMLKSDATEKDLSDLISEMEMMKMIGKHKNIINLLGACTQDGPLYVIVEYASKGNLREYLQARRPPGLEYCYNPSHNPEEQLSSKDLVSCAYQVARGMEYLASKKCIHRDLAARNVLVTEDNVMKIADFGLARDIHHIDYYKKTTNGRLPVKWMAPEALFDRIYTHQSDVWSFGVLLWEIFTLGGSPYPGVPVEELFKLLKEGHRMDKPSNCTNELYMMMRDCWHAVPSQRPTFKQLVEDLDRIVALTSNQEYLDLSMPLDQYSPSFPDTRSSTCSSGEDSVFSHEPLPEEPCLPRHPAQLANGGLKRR
Sequence of FGFR3 (P22607 23-806): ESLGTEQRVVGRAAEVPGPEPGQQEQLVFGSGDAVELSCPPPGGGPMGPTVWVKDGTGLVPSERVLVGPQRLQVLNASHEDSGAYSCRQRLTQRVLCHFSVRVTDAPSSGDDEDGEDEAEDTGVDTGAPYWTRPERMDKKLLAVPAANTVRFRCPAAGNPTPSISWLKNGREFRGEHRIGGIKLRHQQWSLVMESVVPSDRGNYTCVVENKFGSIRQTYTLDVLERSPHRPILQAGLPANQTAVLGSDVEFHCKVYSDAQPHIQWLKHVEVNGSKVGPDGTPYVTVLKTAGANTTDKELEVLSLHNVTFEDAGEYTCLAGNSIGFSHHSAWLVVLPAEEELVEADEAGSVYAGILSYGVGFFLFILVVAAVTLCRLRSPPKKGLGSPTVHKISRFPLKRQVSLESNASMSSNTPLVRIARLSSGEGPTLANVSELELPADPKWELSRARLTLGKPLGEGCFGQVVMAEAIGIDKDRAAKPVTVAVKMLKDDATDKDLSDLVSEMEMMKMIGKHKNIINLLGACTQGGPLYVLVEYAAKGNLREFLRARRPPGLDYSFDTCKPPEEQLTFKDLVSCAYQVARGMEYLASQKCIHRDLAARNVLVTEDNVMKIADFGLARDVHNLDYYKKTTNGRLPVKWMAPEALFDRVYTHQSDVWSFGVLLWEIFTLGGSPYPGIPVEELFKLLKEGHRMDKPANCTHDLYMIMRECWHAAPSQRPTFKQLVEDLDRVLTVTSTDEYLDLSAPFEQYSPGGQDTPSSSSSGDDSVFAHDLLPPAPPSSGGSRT

CCN1CCN(c2ccc(-c3n[nH]c4ncc5c(c34)N(C)C(=O)N(c3c(F)c(OC)cc(OC)c3F)C5)cc2)CC1 [Example 69, 3-(2,6-difluoro-3,5-dimethoxyphenyl)-9-[4-(4-ethylpiperazin-1-yl)phenyl]-1-methyl-1,3,4,7-tetrahydro-2H-pyrazolo[4′,3′:5,6]pyrido[4,3-d]pyrimidin-2-one]
< 100 nM: all assays above

CCN1C(=O)N(c2c(F)c(OC)cc(OC)c2F)Cc2cnc3c(c21)CC(=O)N3 [Example 49, 3-(2,6-Difluoro-3,5-dimethoxyphenyl)-1-ethyl-3,4,7,9-tetrahydro-1H-pyrrolo[3′,2′:5,6]pyrido[4,3-d]pyrimidine-2,8-dione]
< 100 nM: all assays above

COc1cc(OC)c(F)c(N2Cc3cnc4[nH]nc(C)c4c3N(C3CC3)C2=O)c1F [Example 97, 1-cyclopropyl-3-(2,6-difluoro-3,5-dimethoxyphenyl)-9-methyl-1,3,4,7-tetrahydro-2H-pyrazolo[4′,3′:5,6]pyrido[4,3-d]pyrimidin-2-one]
< 100 nM: all assays above

COc1cc(OC)c(F)c(N2Cc3cnc4[nH]ncc4c3N(c3cnn(CC(C)(C)O)c3)C2=O)c1F [Example 173, 3-(2,6-difluoro-3,5-dimethoxyphenyl)-1-[1-(2-hydroxy-2-methylpropyl)-1H-pyrazol-4-yl]-1,3,4,7-tetrahydro-2H-pyrazolo[4′,3′:5,6]pyrido[4,3-d]pyrimidin-2-one]
< 100 nM: all assays above
